Measured values: patent publication US9359281B2, “Enantiomers of 2-hydroxy derivatives of fatty acids” (UNIVERSITAT DE LES ILLES BALEARS, priority 2011, dated 2016)

Assays:
HepG2 cells = assay: Levels of SM in cell membranes, HepG2; assay type: cell-based, human; settings: HepG2, 200 μM [−]2OHOA
Experimental: (§1) The levels of SM, cultivated in the absence (control) or presence of 200 μM of [−]2OHOA, in normal cell membranes (MRC-5 and IMR90) were measured, and also in several types of tumoral cells (see Table 2). In all cases, we detected that the membranes of tumoral cells have SM levels of about half or a third of that in normal cells (FIG. 1). We can therefore assert that SM concentration is a biomarker which indicates tumorgenesis in human cells. On the other hand, treatments with the molecules of the present invention induce an increase of SM in the tumour cells which is not naturally occurring. […] For example, the spectrophotometry determination of solution fluorescence of the SM levels is a very simple, quick and efficient analysis method (FIG. 1D). Thus, this invention has generated a method for diagnosis for detecting the described pathological processes and pathologies in which there are SM level changes, and also for monitoring the efficiency of the therapy using molecules of the present invention and others of similar activity. Based on this knowledge, this invention also includes kits for diagnosing these diseases.

HeLa cells = assay: Levels of SM in cell membranes, HeLa; assay type: cell-based, human; settings: 200 μM [−]2OHOA
Experimental: as §1

[1] = test system: human lung tumour sections (A549 cells); assay: SM marking (lysenin) in A549 tumour sections from treated mice; assay type: in vivo; settings: 600 or 900 mg/kg per day, oral, 50 days
Experimental: C. Upper panel: specific marking by immunocytochemical techniques of the SM (left: lysenin followed by an antibody marked with Alexa 488 fluorophore), of nuclear DNA with Hoechst 33258 (center: Hoechst) or both (right, merge). Figures correspond to human lung tumour sections (A549 cells) formed in immuno-depressed mice treated with a vehicle (control) or with [−]2OHOA at 600 mg/kg per day or at 900 mg/kg per day (oral administration, 50 days).
Bottom panel: The ordinate axis represents the quantification of the fluorescence intensity (arbitrary units) by confocal microscopy in slices of tumours shown in the upper panel (average+average standard deviation), coming from animals treated with a vehicle, or 2OHOA at 600 mg/kg per day (T600) or 900 mg/kg per day (T900) during 50 days. *** P<0.001.

IMR90 cells = assay: Levels of SM in cell membranes, IMR90; assay type: cell-based, human; settings: IMR90 non-tumoral fibroblast, 200 μM [−]2OHOA
Experimental: as §1

C-6 cells [2] = assay: Levels of SM in cell membranes, C-6; assay type: cell-based; settings: C-6 rat glioma, 200 μM [−]2OHOA
Experimental: as §1

SH-SYSY cells = assay: Levels of SM in cell membranes, SH-SYSY; assay type: cell-based, human; settings: 200 μM [−]2OHOA
Experimental: as §1

1321N1 cells = assay: Cell growth inhibition, 1321N1; assay type: cell-based, human; parameters: key: +: inhibition of cell growth; −: absence of effect
T98G cells [3] = assay: Levels of SM in cell membranes, T98G; assay type: cell-based, human; settings: 200 μM [−]2OHOA
Experimental: as §1

PC3 cells = assay: Levels of SM in cell membranes, PC3; assay type: cell-based, human; settings: PC3, 200 μM [−]2OHOA
Experimental: as §1

C-6 cells [4] = assay: Cell growth inhibition, C-6; assay type: cell-based, rat; parameters: key: +: inhibition of cell growth; −: absence of effect
T98G cells [5] = assay: Cell growth inhibition, T98G; assay type: cell-based, human; parameters: key: +: inhibition of cell growth; −: absence of effect
U937 cells = assay: Levels of SM in cell membranes, U937; assay type: cell-based, human; settings: U937, 200 μM [−]2OHOA
Experimental: as §1

BXPC3 cells = assay: Levels of SM in cell membranes, BXPC3; assay type: cell-based, human; settings: BXPC3, 200 μM [−]2OHOA
Experimental: as §1

U87 cells = assay: Levels of SM in cell membranes, U87; assay type: cell-based, human; settings: U87, 200 μM [−]2OHOA
Experimental: as §1

U118 cells = assay: Nuclear SM levels in U118 cells; assay type: cell-based, human; settings: U118, 200 μM, 24 hours
Experimental: FIG. 3. Compound 2OHOA induces an increase in nuclear SM. U118 cancer cells were treated for 24 hours with a vehicle (control) or with 2OHOA at a concentration of 200 μM. The values of the ordinate axis represent the average±ESM (n=3-5) of levels of SM compared to the untreated control (100%).
Another effect associated to the reduction in cell proliferation is an increase in the levels of nuclear SM.

[6] = test system: Raf, MEK, MAP kinase (ERK1 y ERK2), Akt and EGFR; assay: Immunoblot of phosphorylased signalling proteins; assay type: cell-based, human
Experimental: D: The state of activity (levels of phosphorylased forms) of Akt and EGFR also decreases after incubating with 250 μM of 2OHOA.

enzyme EC 1.14.19.1 = assay: [3H]oleate incorporation in U118 cell membranes; assay type: cell-based, human; settings: U118, 200 μM, 24 h
Experimental: FIG. 10. Regulation of the activity of enzyme 1.14.19.1.
Oleic acid is synthesised from esteric acid by the activity of the estearoil-CoA desaturase enzyme (EC 1.14.19.1). This enzyme is crucial in lipid metabolism, as it is a limitant in the synthesis of fatty acids. To see whether this reduction was due to regulation of enzyme EC 1.14.19.1, we incubated U118 cells in the presence or absence of 2OHOA (200 μM, 24 h) and, later, in the presence of [^3H]oleate (5 minutes).

enzyme EC 2.7.8.27 = assay: Activity of enzyme EC 2.7.8.27 in cellular extracts (NBD-Cer); assay type: biochemical; settings: homogenised cells, 200 μM, NBD-Cer 2 hours
Experimental: FIG. 4. Compound 2OHOA acts directly on enzyme EC 2.7.8.27. In A, B, C, in all cases, we incubated cells or cellular extracts or means of incubation with the fluorescent stratum of this enzyme NBD-Cer (nitro-benzoxadiazol-il) ceramide], in the presence or absence (control, white bars) of 2OHOA (black bars). Then, we extracted the lipids and determined the levels of formation of NBD-SM per HPTLC (HP-TLC, high performance thin layer chromatography). The values are presented on the ordinate axis as the average±ESM (n=3-5).
B. In vitro experiment of the activity of enzyme EC 2.7.8.27 in cellular extracts, where we measured the activity of the enzyme after killing the cells. […] For these experiments, homogenised cells were incubated with compound 2OHOA (200 μM) and NBD-Cer for 2 hours.

Row | Structure (SMILES) | % SM after treatment (HepG2 cells) [%] | % SM after treatment (HeLa cells) [%] | levels of SM in A549 tumours [1] | % SM after treatment (IMR90 cells) [%] | % SM after treatment (C-6 cells [2]) [%] | % SM after treatment (SH-SYSY cells) [%] | Effect (anti-proliferation effect) (1321N1 cells) | % SM after treatment (T98G cells [3]) [%] | % SM after treatment (PC3 cells) [%] | Effect (anti-proliferation effect) (C-6 cells [4]) | Effect (anti-proliferation effect) (T98G cells [5]) | % SM after treatment (U937 cells) [%] | % SM after treatment (BXPC3 cells) [%] | % SM after treatment (U87 cells) [%] | level of nuclear SM (U118 cells) | state of activity (phosphorylased forms) of Akt and EGFR ([6]; 250 μM) | phosphorylased (active) form of Raf and MEK ([6]; 150, 200 o 250 μM) | state of activity of MAP kinase (ERK1 y ERK2) ([6]; 150, 200 o 250 μM) | incorporation of radioactive oleic acid in cell membranes (enzyme EC 1.14.19.1) | activation of enzyme EC 2.7.8.27 in cellular extracts (enzyme EC 2.7.8.27)
1 | CCCCCCCC/C=C\CCCCCCC(O)C(=O)O (centres unmarked) [[−]2OHOA] [[−] HOOC—HOCH—(CH2)6—(CH═CH—CH2)1—(CH2)6—CH3] | 35 | 21 | levels of SM significantly increase | 23 | 20 | 22 | + | 19 | 27 | + | + | 24 | 26 | 21 |  |  |  |  |  | 
2 | CCCCCCCC/C=C\CCCCCCC(O)C(=O)O (racemic) [2OHOA, 2-hydroxyoleic acid] |  |  |  |  |  |  |  |  |  |  |  |  |  |  | increases in the level of nuclear SM | decreases | reduction in state of the (active) phosphorylased form of both proteins | dramatic reduction in the state of activity | significantly less than in control cells | able to activate enzyme EC 2.7.8.27 by direct interaction
